Assay results from patent US6509335B1, “Benzoxazinoes/benzothiazinones as serine protease inhibitors” (Warner-Lambert Company, priority 1998, dated 2003).

Key:
[1] = test system: pooled plasma from rabbits; assay: In vitro diluted prothrombin time (dPT) assay, rabbit plasma; conditions: for concentration that causes 2-fold prolongation of baseline dPT: 2X; for concentration that causes 5-fold prolongation of baseline dPT: 5X; for concentration that causes 10-fold prolongation of baseline dPT: 10X
Description: (§1) Rat, rabbit, dog, and human blood (typically 1.8 mL) was collected and added to a sodium citrate solution (3.8%) to afford a 1:10 dilution. After centrifugation (2000 g for 10 minutes), the blood plasma was stored at −70° C. to 0° C. […] […] Fibrin formation and the time required for a clot to form were determined using an automated ST4 Clot Detection System in duplicate.

pooled plasma from dogs = assay: In vitro diluted prothrombin time (dPT) assay, dog plasma; conditions: for concentration that causes 2-fold prolongation of baseline dPT: 2X; for concentration that causes 5-fold prolongation of baseline dPT: 5X; for concentration that causes 10-fold prolongation of baseline dPT: 10X
Description: as §1

[2] = test system: pooled plasma from human volunteers; assay: In vitro diluted prothrombin time (dPT) assay, human plasma; conditions: for concentration that causes 2-fold prolongation of baseline dPT: 2X; for concentration that causes 5-fold prolongation of baseline dPT: 5X; for concentration that causes 10-fold prolongation of baseline dPT: 10X
Description: as §1

human trypsin = assay: Determination of trypsin IC50 (chromogenic substrate S2222); format: biochemical
Description: The ability of compounds to act as inhibitors of human trypsin catalytic activity is assessed by determination of that concentration of test substance that inhibits by 50% (IC50) the ability of human trypsin to cleave the chromogenic substrate S2222 (N-Bz-L-Ile-L-Glu-L-Gly-L-Arg-p-nitroanilide. HCl, DiaPharma). Typically, 145 μL human trypsin (0.5 nM final) in 10 mM HEPES, 150 mM NaCl, 0.1% BSA, and 5 μL of the test substance in DMSO (2% final) are incubated for 60 minutes at room temperature. Following preheating to 37° C. for 5 minutes, to this mixture is added 100 μL of S2222 in HBSA buffer (100 μM final), and the velocity of S2222 hydrolysis is determined at 37° C. by measuring the optical density at OD 405 nm every 10 seconds over 5 minutes using a ThermoMax® Kinetic Microplate Reader.

human factor Xa [3] = target: T1, human factor Xa (Homo sapiens, UniProt P00742); assay: Determination of factor Xa IC50 (chromogenic substrate S2765); format: biochemical
T1 construct: human factor Xa (1 nM final, Enzyme Research Laboratories); purchased Enzyme Research Laboratories
Description: The ability of compounds to act as inhibitors of human factor Xa catalytic activity is assessed by determination of that concentration of test substance that inhibits by 50% (IC50) the ability of human factor Xa to cleave the chromogenic substrate S2765 (N-CBz-D-Arg-L-Gly-L-Arg-p-nitroanilide. 2HCl, DiaPharma). Typically, 145 μL human factor Xa (1 nM final, Enzyme Research Laboratories) in 10 mM HEPES, 150 mM NaCl, 0.1% BSA, pH 7.4 (HBSA buffer), and 5 μL of test substance in DMSO (2% final) are incubated for 60 minutes at room temperature. Following preheating to 37° C. for 5 minutes, to this mixture is added 100 μL of S2765 (400 μM final) in HBSA buffer. The velocity of S2765 hydrolysis is determined at 37° C. by measuring the initial rate of change of the optical density at OD405 nm every 10 seconds for 5 minutes using a ThermoMax® Kinetic Microplate Reader.

[4] = target: T2, human tissue factor/factor VIIa complex (Homo sapiens, UniProt P08709); assay: Determination of tissue factor/factor VIIa inhibition (Spectrozyme VIIa); format: biochemical; conditions: read-out: VIIa % inhib. @ 100 μM
T2 construct: 50 μL human factor VIIa (Enzyme Research Laboratories); purchased Enzyme Research Laboratories (factor VIIa); American Diagnostica (tissue factor)
Description: The ability of compounds to act as inhibitors of the catalytic activity of human tissue factor/factor VIIa complex is assessed by determination of that concentration of test substance that inhibits by 50% (IC50 the ability of a complex of human recombinant tissue factor/factor VIIa to cleave the chromogenic substrate Spectrozyme VIIa (CH3SO2-D-CHA-Arg-pNA*AcOH, American Diagnostica). Typically, 50 μL human factor VIIa (Enzyme Research Laboratories) is incubated for 10 minutes as a 1:1 mixture (5 nM final each) with 95 μL recombinant human tissue factor (American Diagnostica) in a modified HBSA buffer (10 mM Hepes, 5 mM CaCl2, 0.1% BSA, pH 8.0). Then 5 μL of the test substance in DMSO (2% final) is added and incubated for 60 minutes at room temperature. Following preheating to 37° C. for 5 minutes, to this mixture is added 100 μL of Spectrozyme VIIa (500 μM final) in modified HBSA, and the velocity of Spectrozyme VIIa hydrolysis is determined at 37° C. by measuring the optical density at an OD405 nm every 10 seconds over 5 minutes using a ThermoMax® Kinetic Microplate Reader.

rabbit = assay: Rabbit veno-venous shunt model of thrombosis; format: in vivo
Description: In that model, a plastic shunt which contains cotton thread was inserted into abdominal vena cava and thrombus developed inside the shunt under control conditions. The end points of the experiment are the time to occlusion (TTO) and thrombus weight. […] Three doses have been tested in a total of 15 rabbits (5 rabbits in each group): 30 μg/kg+1 μg/kg/min, 60 μg/kg+2 μg/kg/min, and 90 μg/kg+3 μg/kg/min. […] The net thrombus weight was reduced from 56.4±4.3 to 21.3±7.8 mg in that group.

human thrombin = target: T3, human thrombin (Homo sapiens, UniProt P00734); assay: Determination of thrombin IC50 (chromogenic substrate Chromozym TH); format: biochemical
T3 construct: regulates the generation of thrombin from its zymogen prothrombin; purchased Enzyme Research Laboratories
Description: The ability of compounds to act as inhibitors of human thrombin catalytic activity is assessed by determination of that concentration of test substance that inhibits by 50% (IC50) the ability of human thrombin to cleave the chromogenic substrate Chromozym TH (Tosyl-Gly-Pro-Arg-pNA*Ac, Boehringer Mannheim). Typically, 145 μL human thrombin (0.75 nM, Enzyme Research Laboratories) in a HPB buffer (10 mM HEPES, 100 mM NaCl, 0.05% BSA, 0.1% PEG-8000, pH 7.4) and 5 μL of test substance in DMSO (2% final) are incubated for 60 minutes at room temperature. Following preheating to 37° C. for 5 minutes, to this mixture is added 100 μL of Chromozym TH (24 μM final) in HPB buffer. The velocity of Chromozym TH hydrolysis is determined at 37° C. by measuring the initial rate of change of the optical density at OD 405 nm every 10 seconds for 5 minutes using a ThermoMax® Kinetic Microplate Reader.

[5] = target: T4, human prothrombinase (PTase) complex (Homo sapiens, UniProt P00742); assay: In vitro assay for human prothrombinase; format: biochemical; conditions: PTase activity expressed by thrombin activity
T4 construct: 2.5 pM human factor Xa (Enzyme Research Laboratories); purchased Enzyme Research Laboratories
Description: For determination of IC50 (PTase) of the compounds of the invention, PTase activity was expressed by thrombin activity.
PTase reaction was performed in 100 μL of mixture containing PTase (20 μM) PCPS (Avanti Polar Lipids following a procedure modified from Barenholz et al., Biochemistry, 1977;16:2806-2810) in a 30:70 ratio, 2.5 nM human factor Va (Enzyme Research Laboratories) and 2.5 pM human factor Xa (Enzyme Research Laboratories) in modified HEPES buffer (10 mM Hepes, 150 mM NaCl, 0.1% PEG-8000, 0.05% BSA, 2.5 mM CaCl2, pH 7.4), 3 μM human prothrombin (Enzyme Research Laboratories) and varied concentrations of the test compounds (1 nM to 100 μM in DMSO, 2% final). Reaction was started by co-incubating PTase with test compound for 60 minutes at room temperature, followed by addition of prothrombin for 6 minutes at room temperature. Next, the reaction was quenched by the addition of 100 μL of 20 mM EDTA. Activity of the thrombin (product) is then measured in the presence of 50 μL S2238 (250 μM final, H-D-Phe-Pip-Arg-pNA*Ac, DiaPharma) as substrate by measuring the change at 37° C. in OD405 nm for 5 minutes at 10 second intervals using a ThermoMax® Kinetic Microplate Reader.

human factor Xa [6] = target: T1, human factor Xa; assay: Determination of factor Xa Ki (fluorogenic S2765); format: biochemical
Description: Compounds of the present invention may be prepared for assay by dissolving them in buffer to give solutions ranging in concentrations from 1 to 100 μM. In an assay to determine the inhibitory dissociation constant, Ki, for a given compound, a chromogenic or fluorogenic substrate of factor Xa would be added to a solution containing a test compound and factor Xa; the resulting catalytic activity of the enzyme is spectrophotometrically determined. This assay is well-known to those skilled in the art and is commonly used to determine antithrombotic activity.
For Ki determinations, the assay conditions were essentially the same as above except for the following. The concentration of factor Xa was 50 pM, and that of the substrate, in this case a fluorogenic S2765 (i.e. S2765 with AMC tag instead of pNA, California Peptide Research), was over the range of 10 to 500 μM. The test compound and substrate in HBSA buffer were incubated as above, and the reaction was initiated with enzyme-buffer. The data (steady-state velocity at various concentrations of the substrate and the inhibitors) of the competitive inhibition was analyzed using the methods described by Segel (Enzyme Kinetics, Wiley Interscience Publications, 1993). […]

[7] = 30 μg/kg+1, 60 μg/kg+2, 90 μg/kg+3 μg/kg/min
[8] = highest dose 90 μg/kg+3 μg/kg/min

T1 sequence (P00742 235-488 limits assumed): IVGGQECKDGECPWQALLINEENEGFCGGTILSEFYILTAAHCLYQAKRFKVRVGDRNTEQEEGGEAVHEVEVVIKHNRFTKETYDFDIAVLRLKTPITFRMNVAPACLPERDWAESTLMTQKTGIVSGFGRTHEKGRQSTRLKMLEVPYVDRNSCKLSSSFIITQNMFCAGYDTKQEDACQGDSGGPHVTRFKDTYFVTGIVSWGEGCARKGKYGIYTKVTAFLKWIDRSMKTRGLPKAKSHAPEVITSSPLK
T1 sequence (P00742 41-179 limits assumed): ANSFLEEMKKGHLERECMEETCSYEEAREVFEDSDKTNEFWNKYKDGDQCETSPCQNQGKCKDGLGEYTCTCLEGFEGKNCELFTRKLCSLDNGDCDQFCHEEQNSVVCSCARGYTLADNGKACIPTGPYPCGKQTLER
T2 sequence (P08709 213-466 limits assumed): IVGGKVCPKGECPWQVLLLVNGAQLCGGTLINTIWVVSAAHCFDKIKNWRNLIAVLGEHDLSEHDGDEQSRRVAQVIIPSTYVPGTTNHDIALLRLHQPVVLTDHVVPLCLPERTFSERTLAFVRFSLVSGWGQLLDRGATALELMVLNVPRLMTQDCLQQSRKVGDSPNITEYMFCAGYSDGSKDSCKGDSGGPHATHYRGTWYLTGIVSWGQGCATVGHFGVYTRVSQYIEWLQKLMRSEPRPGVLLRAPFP
T2 sequence (P08709 61-212 limits assumed): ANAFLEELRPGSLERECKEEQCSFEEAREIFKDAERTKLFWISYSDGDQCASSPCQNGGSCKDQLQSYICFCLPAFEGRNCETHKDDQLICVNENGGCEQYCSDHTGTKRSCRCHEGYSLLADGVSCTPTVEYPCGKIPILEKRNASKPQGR
T2 sequence (P13726 33-295 partner): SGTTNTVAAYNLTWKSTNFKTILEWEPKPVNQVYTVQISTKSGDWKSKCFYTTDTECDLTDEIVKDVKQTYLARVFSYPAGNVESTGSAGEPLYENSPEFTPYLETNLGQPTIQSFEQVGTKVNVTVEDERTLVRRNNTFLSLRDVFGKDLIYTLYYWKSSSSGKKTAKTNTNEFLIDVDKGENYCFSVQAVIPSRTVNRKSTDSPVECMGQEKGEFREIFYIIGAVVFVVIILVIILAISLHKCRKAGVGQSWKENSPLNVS
T4 sequence (P00742 235-488 limits assumed): as the sequence (P00742 235-488 limits assumed) above
T4 sequence (P00742 41-179 limits assumed): as the sequence (P00742 41-179 limits assumed) above
T4 sequence (P12259 29-737 partner limits assumed): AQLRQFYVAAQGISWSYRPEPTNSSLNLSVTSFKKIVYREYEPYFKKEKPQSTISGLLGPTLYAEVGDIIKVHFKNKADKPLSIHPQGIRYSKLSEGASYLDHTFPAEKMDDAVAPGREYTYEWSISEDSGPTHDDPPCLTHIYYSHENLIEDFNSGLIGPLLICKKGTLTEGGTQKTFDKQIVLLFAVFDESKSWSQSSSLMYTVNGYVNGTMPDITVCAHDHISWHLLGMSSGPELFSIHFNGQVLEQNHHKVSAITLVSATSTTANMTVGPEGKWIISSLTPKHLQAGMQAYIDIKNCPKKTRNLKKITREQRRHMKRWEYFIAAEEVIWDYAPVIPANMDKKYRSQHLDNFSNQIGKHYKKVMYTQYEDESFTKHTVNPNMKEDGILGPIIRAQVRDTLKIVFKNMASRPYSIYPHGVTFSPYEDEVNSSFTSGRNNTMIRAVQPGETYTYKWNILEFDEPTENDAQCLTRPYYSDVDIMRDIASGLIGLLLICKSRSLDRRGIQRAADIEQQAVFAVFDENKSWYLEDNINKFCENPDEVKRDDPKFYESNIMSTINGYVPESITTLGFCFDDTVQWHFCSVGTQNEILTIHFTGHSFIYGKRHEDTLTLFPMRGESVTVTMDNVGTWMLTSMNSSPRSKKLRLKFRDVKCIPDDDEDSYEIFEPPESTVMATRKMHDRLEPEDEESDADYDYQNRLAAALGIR
T4 sequence (P12259 1574-2224 partner limits assumed): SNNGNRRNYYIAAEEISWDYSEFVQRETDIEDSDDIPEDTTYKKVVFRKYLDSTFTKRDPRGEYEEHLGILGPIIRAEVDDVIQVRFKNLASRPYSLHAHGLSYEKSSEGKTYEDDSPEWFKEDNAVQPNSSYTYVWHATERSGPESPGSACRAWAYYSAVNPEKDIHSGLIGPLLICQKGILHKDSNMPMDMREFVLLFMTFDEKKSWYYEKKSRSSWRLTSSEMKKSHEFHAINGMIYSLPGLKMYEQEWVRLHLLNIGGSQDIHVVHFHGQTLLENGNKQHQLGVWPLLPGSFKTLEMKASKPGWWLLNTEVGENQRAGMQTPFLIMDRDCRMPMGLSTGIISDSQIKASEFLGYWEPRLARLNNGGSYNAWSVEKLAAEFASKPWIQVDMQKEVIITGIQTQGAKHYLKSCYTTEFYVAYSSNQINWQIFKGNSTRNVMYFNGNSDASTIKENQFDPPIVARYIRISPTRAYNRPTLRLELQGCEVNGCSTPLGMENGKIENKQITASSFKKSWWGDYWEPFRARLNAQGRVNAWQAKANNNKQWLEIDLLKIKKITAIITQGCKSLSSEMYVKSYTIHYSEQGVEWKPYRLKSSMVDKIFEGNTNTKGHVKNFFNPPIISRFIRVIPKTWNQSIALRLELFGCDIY

SMILES	concentration that causes 2-fold prolongation of baseline dPT [1]	concentration that causes 5-fold prolongation of baseline dPT [1]	concentration that causes 10-fold prolongation of baseline dPT [1]	concentration that causes 2-fold prolongation of baseline dPT (pooled plasma from dogs)	concentration that causes 5-fold prolongation of baseline dPT (pooled plasma from dogs)	concentration that causes 10-fold prolongation of baseline dPT (pooled plasma from dogs)	concentration that causes 2-fold prolongation of baseline dPT [2]	concentration that causes 5-fold prolongation of baseline dPT [2]	concentration that causes 10-fold prolongation of baseline dPT [2]	IC50 (human trypsin)	IC50 (human factor Xa [3])	inhibition at 100 µM [4]	IC50 (human thrombin)	also measured
CC(=N)N1CC[C@H](Oc2ccc([C@H](Cc3ccc4ccc(C(=N)N)cc4c3)C(=O)O)cc2)C1 [DX-9065a, reference compound]	1.4 µM	21.8 µM	96.8 μM	2.5 µM	51.1 µM	118.6 μM	0.06 µM	0.53 µM	1.3 μM	–	–	–	–	–
C[C@@H]1CCC[C@H](C)N1CCCCCN1C(=O)C(c2cccc(C(=N)N)c2)Oc2ccccc21 (stereo partly drawn) [Example 2, 3-(4-5-[(2R,6S)-2,6-Dimethylhexahydro-1-pyridinyl]pentyl-3-oxo-3,4-dihydro-2H-1,4-benzoxazin-2-yl)-1-benzenecarboximidamide]	–	–	–	–	–	–	–	–	–	474 nM	7 nM	30%	–	net thrombus weight, dose dependence (rabbit; [7]): reduced the net thrombus weight; time to occlusion, dose dependence (rabbit; [7]): dose-dependently prolonged the time to occlusion; ACT (rabbit; all 3 dose groups): only slight increases; animals with no occlusive thrombus formation during the 120-minute test period (rabbit; [8]): 4 out of 5; prolongation of PT (rabbit; [8]): 1.8 fold; prolongation of TT (rabbit; [8]): 1.5 fold; prolongation of aPTT (rabbit; [8]): 5.4 fold; prolongation of bleeding time (rabbit; [8]): 2.5 fold; time to occlusion (TTO) (rabbit; highest dose 90 μg/kg+3 μg/kg/min, bolus via jugular vein + infusion 140 minutes, control 16.8±5.4): 98.2 ± 21.8 min; net thrombus weight (rabbit; highest dose 90 μg/kg+3 μg/kg/min, control 56.4±4.3): 21.3 ± 7.8 mg
C[C@@H]1CCC[C@H](C)N1CCCCCN1C(=O)C(c2cccc(C(=N)N)c2)Sc2ccccc21 (stereo partly drawn) [Example 3, 3-(4-5-[(2R,6S)-2,6-Dimethylhexahydro-1-pyridinyl]pentyl-3-oxo-3,4-dihydro-2H-1,4-benzothiazin-2-yl)-1-benzenecarboximidamide]	–	–	–	–	–	–	–	–	–	782 nM	108 nM	31%	1780 nM	–
C[C@@H]1CCC[C@H](C)N1CCCCCN1C(=O)C(c2cc(C(=N)N)ccc2O)Oc2ccccc21 (stereo partly drawn) [Example 5, 3-(4-5-[(2R,6S)-2,6-Dimethyltetrahydro-1(2H)-pyridinyl]pentyl-3-oxo-3,4-dihydro-2H-1,4-benzoxazin-2-yl)4-hydroxybenzenecarboximidamide]	0.44 µM	0.97 µM	1.86 μM	0.84 µM	1.2 µM	1.81 μM	0.0069 µM	0.063 µM	0.157 μM	380 nM	< 1 nM	29%	1030 nM	IC50 [5]: 0.17 nM
C[C@@H]1CCC[C@H](C)N1CCCCCN1C(=O)[C@H](c2cc(C(=N)N)ccc2O)Oc2ccccc21 [Example 6, 3-((2S)-4-5-[(2R,6S)-2,6-Dimethyltetrahydro-1(2H)-pyridinyl]pentyl-3-oxo-3,4-dihydro-2H-1,4-benzoxazin-2-yl)-4-hydroxybenzenecarboximidamide]	–	–	–	–	–	–	–	–	–	750 nM	3 nM	37%	1390 nM	Ki (human factor Xa [6]): 0.076 nM
